Reference: US7314968B2, “Transgenic fish and β-catenin signaling pathway model” (University of Washington, priority 2002, dated 2008)

Columns and labels:
hdl = hdl morpholino injection into one-cell TOPdGFP transgenic zebrafish embryos, in situ hybridization and phenotype; type: in vivo
Protocol: (§1) In Situ Hybridizations: In situ hybridization was performed as described previously (Oxtoby and Jowett, 1993). The GFP probe was made by antisense transcription of TOPdGFP, using a T7 promoter present in the construct. The Probe for hdl was made from a full-length clone isolated in our laboratory, subcloned into pCS2+. Probes for pax2.1 (Krauss et al., 1991), tbx6 (Hug et al., 1997), and lef1 (Dorsky et al., 1999) were made as described previously. Images were taken with a Kodak DC290 digital camera and processed with Adobe Photoshop 5.0.
(§2) Morpholino Injections: Morpholino antisense oligonucleotides targeted to lef1 and hdl were obtained from Gene Tools (Corvallis, Oreg.). lef1 MO sequence: 5′- […]-3′ (SE ID NO:3); hdl MO sequence: 5′- […]-3(SEQ ID NO:4).
(§3) Approximately 1 ng of the morpholinos was injected into one-cell homozygous transgenic embryos that were fixed for in situ hybrid-ization at appropriate stages. Injections of control morpholinos produced no effect on TOPdGFP expression.

lef1 = lef1 morpholino injection into one-cell TOPdGFP transgenic zebrafish embryos, in situ hybridization and phenotype; type: in vivo
Protocol: as §1, §2, §3

Substance	expression of midbrain marker pax2 (hdl; bud stage)	expression of ventrolateral mesoderm markers spt and tbx6 (hdl; bud stage)	posterior GFP expression (hdl; bud stage)	embryo phenotype (hdl; injection at the one-cell stage, 36 hpf)	anterior TOPdGFP expression (hdl; shield stage or bud stage)	embryo phenotype (lef1; 36 hpf)	TOPdGFP expression in the embryo (lef1; bud stage)	expression of spt and tbx6 (lef1; bud stage)	pax2 expression (lef1; bud stage)
hdl morpholino: Morpholino antisense oligonucleotide targeted to zebrafish hdl, 5′- CTCCGTTTAACTGAGGCATGTTGGC-3 (SEQ ID NO:4), from Gene Tools (all phosphorodiamidate morpholino (PMO))	anterior expansion	no effect	no effect	phenotype indistinguishable from hdl mutant embryos	does not expand	–	–	–	–
lef1 morpholino: Morpholino antisense oligonucleotide targeted to zebrafish lef1, 5′- CTCCTCCACCTGACAACTGCGGCAT-3′ (SEQ ID NO:3), from Gene Tools (all phosphorodiamidate morpholino (PMO))	–	–	–	–	–	tail truncations and loss of paraxial mesoderm, but normal head development	striking decrease	decreased expression	no effect
